Data from ChEMBL document CHEMBL5463723, “Data for DCP probe BIBO3304” (2023).

Legend:
[1] = molecular target: Calpain-1 catalytic subunit (Homo sapiens) (UniProt P07384); experiment: Inhibitor of CALPAIN in the Eurofins Panlabs screen (BI) by FI - fluorescence intensity; conditions: Compound concentration 10.0 uM
[2] = molecular target: D(1A) dopamine receptor (Homo sapiens) (UniProt P21728); experiment: Activity against D1/HU in the Eurofins Panlabs screen (BI) by Radioactive Assay; conditions: Compound concentration 10.0 uM
[3] = molecular target: Vasopressin V1a receptor (Homo sapiens) (UniProt P37288); experiment: V1a Eurofins-Cerep binding assay; parameters: ligand concentration 0.3 nM; conditions: Compound concentration 10.0 uM
[4] = molecular target: Potassium voltage-gated channel subfamily A member 1 (Rattus norvegicus) (UniProt P10499); experiment: Activity against K+/KA/R in the Eurofins Panlabs screen (BI) by Radioactive Assay; conditions: Compound concentration 10.0 uM
[5] = molecular target: Bombesin receptor subtype-3 (Rattus norvegicus) (UniProt Q8K418); experiment: Activity against BOMBESIN/R in the Eurofins Panlabs screen (BI) by Radioactive Assay; conditions: Compound concentration 10.0 uM
[6] = molecular target: Polyunsaturated fatty acid 5-lipoxygenase (Homo sapiens) (UniProt P09917); experiment: Activity against 5LO in the Eurofins Panlabs screen (BI) by Radioactive Assay; conditions: Compound concentration 30.0 uM
[7] = molecular target: Glutamate NMDA receptor (Rattus norvegicus) (UniProt P35439+Q00959+Q00960+Q00961+Q62645+Q8VHN2+Q9R1M7); experiment: Inhibitor of NMDA/R in the Eurofins Cerep SafetyScreen44 (BI) by Radioactive Assay (Cerep_66); format: protein-complex assay; conditions: Compound concentration 10.0 uM
[8] = molecular target: Thyrotropin-releasing hormone receptor (Rattus norvegicus) (UniProt Q01717); experiment: Activity against TRH/R in the Eurofins Panlabs screen (BI) by Radioactive Assay; conditions: Compound concentration 10.0 uM
[9] = molecular target: T1, Neuropeptide Y receptor type 2 (Homo sapiens, UniProt P49146); experiment: Radioligand binding assay (NPY2R, SMS-KAN cells); format: cell-based
T1 sequence (P49146 whole entry): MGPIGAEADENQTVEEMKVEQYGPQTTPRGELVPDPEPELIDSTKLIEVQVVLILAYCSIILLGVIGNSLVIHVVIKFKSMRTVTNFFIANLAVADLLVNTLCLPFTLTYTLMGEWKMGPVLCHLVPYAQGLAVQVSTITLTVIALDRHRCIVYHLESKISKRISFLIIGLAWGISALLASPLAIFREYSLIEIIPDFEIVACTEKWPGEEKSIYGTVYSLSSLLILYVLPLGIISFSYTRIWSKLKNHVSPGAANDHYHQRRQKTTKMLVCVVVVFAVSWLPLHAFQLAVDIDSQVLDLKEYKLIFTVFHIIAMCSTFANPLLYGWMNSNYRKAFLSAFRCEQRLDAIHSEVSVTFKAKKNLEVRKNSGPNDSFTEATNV

[10] = species on record: Homo sapiens; experiment: Agonist activity in the Eurofins Cerep SafetyScreen44 (BI) against N_NEURO_A4B2 by Radioligand Binding (Cerep_3029); format: protein-complex assay; conditions: Compound concentration 10.0 uM
[11] = molecular target: Insulin receptor (Rattus norvegicus) (UniProt P15127); experiment: Activity against INSULIN/R in the Eurofins Panlabs screen (BI) by Radioactive Assay; conditions: Compound concentration 10.0 uM
[12] = species on record: Cavia porcellus; experiment: Activity against ANF/GP in the Eurofins Panlabs screen (BI) by Radioactive Assay; conditions: Compound concentration 10.0 uM
[13] = molecular target: 5-hydroxytryptamine receptor 2B (Homo sapiens) (UniProt P41595); experiment: 5-HT2B Eurofins-Cerep binding assay; conditions: Compound concentration 10.0 uM
[14] = molecular target: Muscarinic acetylcholine receptor M1 (Rattus norvegicus) (UniProt P08482); experiment: Activity against M1/R in the Eurofins Panlabs screen (BI) by Radioactive Assay; conditions: Compound concentration 10.0 uM
[15] = molecular target: Cannabinoid receptor 2 (Homo sapiens) (UniProt P34972); experiment: Activity against CB2/PERIPH/H in the Eurofins Cerep SafetyScreen44 (BI) by Radioactive Assay (Cerep_37); conditions: Compound concentration 10.0 uM
[16] = molecular target: Muscarinic acetylcholine receptor M1 (Homo sapiens) (UniProt P11229); experiment: M1 Eurofins-Cerep binding assay; parameters: ligand concentration 2 nM; conditions: Compound concentration 10.0 uM
[17] = molecular target: Gamma-aminobutyric acid receptor subunit alpha-1 (Rattus norvegicus) (UniProt P62813); experiment: Activity against GABAACENTR in the Eurofins Panlabs screen (BI) by Radioactive Assay; conditions: Compound concentration 10.0 uM
[18] = molecular target: Gamma-aminobutyric acid receptor subunit alpha-1 (Rattus norvegicus) (UniProt P62813); experiment: Activity against GABAACL+ in the Eurofins Panlabs screen (BI) by Radioactive Assay; conditions: Compound concentration 10.0 uM
[19] = molecular target: Androgen receptor (Rattus norvegicus) (UniProt P15207); experiment: Activity against TESTOST/R in the Eurofins Panlabs screen (BI) by Radioactive Assay; conditions: Compound concentration 10.0 uM
[20] = molecular target: Kappa-type opioid receptor (Homo sapiens) (UniProt P41145); experiment: kappa (KOP) Eurofins-Cerep binding assay; conditions: Compound concentration 10.0 uM
[21] = molecular target: Neuropeptide Y receptor type 2 (Oryctolagus cuniculus) (UniProt G1TSD5); experiment: Activity against Y2/RB in the Eurofins Panlabs screen (BI) by Radioactive Assay; conditions: Compound concentration 10.0 uM
[22] = molecular target: D(2) dopamine receptor (Homo sapiens) (UniProt P14416); experiment: Agonist activity in the Eurofins Cerep SafetyScreen44 (BI) against D2SH_AGON by Scintillation counting (Cerep_1322); conditions: Compound concentration 10.0 uM
[23] = molecular target: Opioid receptor (Rattus norvegicus) (UniProt P33533+P34975+P33535); experiment: Activity against OPIAT/NS in the Eurofins Panlabs screen (BI) by Radioactive Assay; format: protein assay; conditions: Compound concentration 10.0 uM
[24] = molecular target: Leukotriene C4 synthase (Cavia porcellus) (UniProt A6XA80); experiment: Inhibitor of LTC4SYN in the Eurofins Panlabs screen (BI) by Radioactive Assay; conditions: Compound concentration […] uM
[25] = molecular target: Glutamate receptor ionotropic, kainate 1 (Rattus norvegicus) (UniProt P22756); experiment: Activity against KAINATE/R in the Eurofins Panlabs screen (BI) by Radioactive Assay; conditions: Compound concentration 10.0 uM
[26] = molecular target: Gamma-aminobutyric acid receptor subunit alpha-1 (Rattus norvegicus) (UniProt P62813); experiment: Agonist activity in the Eurofins Panlabs screen (BI) against GABAA-AGSI/R by Scintillation counting; conditions: Compound concentration 10.0 uM
[27] = molecular target: Interleukin-6 receptor subunit alpha (Homo sapiens) (UniProt P08887); experiment: Activity against IL-6/H in the Eurofins Panlabs screen (BI) by SPA - blue shifted; conditions: Compound concentration 10.0 uM
[28] = molecular target: Kappa-type opioid receptor (Cavia porcellus) (UniProt P41144); experiment: Activity against KAPPA/GP in the Eurofins Panlabs screen (BI) by Radioactive Assay; conditions: Compound concentration 10.0 uM
[29] = molecular target: Platelet-activating factor receptor (Oryctolagus cuniculus) (UniProt G1TEI7); experiment: Activity against PAF/RB in the Eurofins Panlabs screen (BI) by Radioactive Assay; conditions: Compound concentration 10.0 uM
[30] = molecular target: Delta-type opioid receptor (Homo sapiens) (UniProt P41143); experiment: delta (DOP) Eurofins-Cerep binding assay; parameters: ligand concentration 0.5 nM; conditions: Compound concentration 10.0 uM
[31] = molecular target: Nitric oxide synthase, inducible (Mus musculus) (UniProt P29477); experiment: Activity against INOS in the Eurofins Panlabs screen (BI) by absorption of electromagnetic radiation; conditions: Compound concentration 10.0 uM
[32] = molecular target: Calcitonin-gene-related peptide receptor; CALCRL/RAMP1 (Rattus norvegicus) (UniProt Q63118+Q9JJ74); experiment: Activity against CGRP/R in the Eurofins Panlabs screen (BI) by Radioactive Assay; format: protein-complex assay; conditions: Compound concentration 10.0 uM
[33] = molecular target: Protein kinase C alpha type (Homo sapiens) (UniProt P17252); experiment: Inhibitor of PKCALPHA in the Eurofins Panlabs screen (BI) by Radioactive Assay; conditions: Compound concentration 10.0 uM
[34] = molecular target: Alpha-2A adrenergic receptor (Oryctolagus cuniculus) (UniProt Q5ZQK3); experiment: Activity against ALPHA2A/RB in the Eurofins Panlabs screen (BI) by Radioactive Assay; conditions: Compound concentration 10.0 uM
[35] = molecular target: Endothelin-1 receptor (Rattus norvegicus) (UniProt P26684); experiment: Activity against ETA/R in the Eurofins Panlabs screen (BI) by Radioactive Assay; conditions: Compound concentration 10.0 uM

Gamma-aminobutyric acid receptor subunit alpha-1 (Rattus norvegicus), sequence (P62813 whole entry): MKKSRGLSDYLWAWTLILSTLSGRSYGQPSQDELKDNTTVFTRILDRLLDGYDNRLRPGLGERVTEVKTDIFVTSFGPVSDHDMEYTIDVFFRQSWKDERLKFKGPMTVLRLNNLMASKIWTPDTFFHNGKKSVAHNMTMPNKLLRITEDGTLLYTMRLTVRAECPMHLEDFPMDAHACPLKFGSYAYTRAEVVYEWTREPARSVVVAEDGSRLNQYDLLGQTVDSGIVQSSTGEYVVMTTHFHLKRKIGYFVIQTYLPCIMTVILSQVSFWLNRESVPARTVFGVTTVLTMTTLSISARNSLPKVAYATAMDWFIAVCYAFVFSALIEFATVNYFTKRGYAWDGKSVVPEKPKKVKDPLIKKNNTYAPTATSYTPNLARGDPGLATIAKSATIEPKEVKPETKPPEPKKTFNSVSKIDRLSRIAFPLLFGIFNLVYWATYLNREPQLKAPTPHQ
Bombesin receptor subtype-3 (Rattus norvegicus), sequence (Q8K418 whole entry): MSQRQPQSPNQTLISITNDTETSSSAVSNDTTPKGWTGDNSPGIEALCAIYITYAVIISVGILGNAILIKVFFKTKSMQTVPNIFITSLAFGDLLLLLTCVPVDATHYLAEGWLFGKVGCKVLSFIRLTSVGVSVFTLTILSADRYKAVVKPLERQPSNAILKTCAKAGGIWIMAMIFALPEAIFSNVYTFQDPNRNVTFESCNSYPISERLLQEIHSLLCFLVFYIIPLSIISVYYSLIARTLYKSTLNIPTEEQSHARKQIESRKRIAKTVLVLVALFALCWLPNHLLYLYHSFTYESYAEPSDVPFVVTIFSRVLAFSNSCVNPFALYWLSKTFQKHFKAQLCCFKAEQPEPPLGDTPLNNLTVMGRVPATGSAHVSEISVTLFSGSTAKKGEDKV
Androgen receptor (Rattus norvegicus), sequence (P15207 whole entry S389L): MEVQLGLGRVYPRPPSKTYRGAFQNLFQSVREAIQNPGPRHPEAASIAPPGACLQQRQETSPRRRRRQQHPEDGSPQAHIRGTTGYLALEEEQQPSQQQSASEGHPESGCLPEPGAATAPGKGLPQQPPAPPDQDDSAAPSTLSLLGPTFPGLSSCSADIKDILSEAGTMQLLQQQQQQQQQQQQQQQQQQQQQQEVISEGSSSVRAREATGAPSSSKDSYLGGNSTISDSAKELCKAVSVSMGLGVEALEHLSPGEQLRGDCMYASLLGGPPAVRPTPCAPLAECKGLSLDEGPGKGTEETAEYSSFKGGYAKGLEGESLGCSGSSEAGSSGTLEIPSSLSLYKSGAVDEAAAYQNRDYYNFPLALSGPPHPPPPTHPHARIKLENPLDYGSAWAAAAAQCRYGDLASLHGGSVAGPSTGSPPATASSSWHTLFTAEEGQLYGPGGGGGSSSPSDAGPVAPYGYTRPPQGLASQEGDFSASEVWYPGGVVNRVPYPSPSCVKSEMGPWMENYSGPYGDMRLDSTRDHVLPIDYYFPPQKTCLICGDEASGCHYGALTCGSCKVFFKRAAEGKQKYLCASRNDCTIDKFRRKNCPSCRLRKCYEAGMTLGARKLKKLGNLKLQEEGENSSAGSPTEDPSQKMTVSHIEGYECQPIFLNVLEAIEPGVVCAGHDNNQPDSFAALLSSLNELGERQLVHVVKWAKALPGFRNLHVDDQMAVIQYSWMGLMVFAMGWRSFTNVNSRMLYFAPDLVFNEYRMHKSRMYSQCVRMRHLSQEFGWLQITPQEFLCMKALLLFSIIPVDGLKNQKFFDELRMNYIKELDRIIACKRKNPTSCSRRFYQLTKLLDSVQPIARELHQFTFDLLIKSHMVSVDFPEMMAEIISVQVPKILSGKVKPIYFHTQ
Leukotriene C4 synthase (Cavia porcellus), sequence (A6XA80 whole entry): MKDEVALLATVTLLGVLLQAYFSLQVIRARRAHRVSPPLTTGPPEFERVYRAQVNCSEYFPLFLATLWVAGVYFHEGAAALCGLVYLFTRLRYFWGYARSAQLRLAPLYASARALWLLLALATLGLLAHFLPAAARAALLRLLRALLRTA
Interleukin-6 receptor subunit alpha (Homo sapiens), sequence (P08887 whole entry): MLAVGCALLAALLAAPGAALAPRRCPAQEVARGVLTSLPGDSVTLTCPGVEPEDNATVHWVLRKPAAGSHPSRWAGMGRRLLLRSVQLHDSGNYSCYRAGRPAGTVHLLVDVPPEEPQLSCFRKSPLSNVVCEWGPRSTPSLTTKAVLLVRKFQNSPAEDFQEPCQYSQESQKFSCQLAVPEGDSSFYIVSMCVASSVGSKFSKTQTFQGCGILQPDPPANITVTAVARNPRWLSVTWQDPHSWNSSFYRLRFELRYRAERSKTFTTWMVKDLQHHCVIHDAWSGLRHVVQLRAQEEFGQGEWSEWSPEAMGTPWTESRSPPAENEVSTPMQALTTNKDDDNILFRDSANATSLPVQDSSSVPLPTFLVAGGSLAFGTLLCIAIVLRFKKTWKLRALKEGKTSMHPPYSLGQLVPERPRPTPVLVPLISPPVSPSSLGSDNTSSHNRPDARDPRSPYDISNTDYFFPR
Thyrotropin-releasing hormone receptor (Rattus norvegicus), sequence (Q01717 whole entry): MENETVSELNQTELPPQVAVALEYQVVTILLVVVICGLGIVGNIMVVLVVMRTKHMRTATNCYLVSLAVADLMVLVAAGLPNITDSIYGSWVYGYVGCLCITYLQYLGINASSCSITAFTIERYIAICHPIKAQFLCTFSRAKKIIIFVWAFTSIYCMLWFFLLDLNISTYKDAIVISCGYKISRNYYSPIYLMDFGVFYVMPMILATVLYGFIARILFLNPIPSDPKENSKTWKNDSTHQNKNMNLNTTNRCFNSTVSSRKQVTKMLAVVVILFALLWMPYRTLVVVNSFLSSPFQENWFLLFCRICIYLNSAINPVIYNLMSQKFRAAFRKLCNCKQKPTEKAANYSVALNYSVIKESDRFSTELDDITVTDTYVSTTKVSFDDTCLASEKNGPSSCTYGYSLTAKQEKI
Vasopressin V1a receptor (Homo sapiens), sequence (P37288 whole entry, looked up): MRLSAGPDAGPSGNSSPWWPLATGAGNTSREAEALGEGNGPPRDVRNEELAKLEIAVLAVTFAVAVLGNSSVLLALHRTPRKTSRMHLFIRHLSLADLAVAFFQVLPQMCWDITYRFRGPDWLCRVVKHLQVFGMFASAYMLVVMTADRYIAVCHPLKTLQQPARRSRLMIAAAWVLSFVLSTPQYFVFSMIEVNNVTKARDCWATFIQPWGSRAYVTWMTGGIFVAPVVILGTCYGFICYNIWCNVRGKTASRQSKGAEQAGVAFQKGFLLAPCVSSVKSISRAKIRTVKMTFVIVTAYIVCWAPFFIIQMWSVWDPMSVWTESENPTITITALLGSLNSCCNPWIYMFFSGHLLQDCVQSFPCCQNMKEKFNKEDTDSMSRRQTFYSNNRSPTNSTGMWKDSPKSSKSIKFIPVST
Nitric oxide synthase, inducible (Mus musculus), sequence (P29477 whole entry): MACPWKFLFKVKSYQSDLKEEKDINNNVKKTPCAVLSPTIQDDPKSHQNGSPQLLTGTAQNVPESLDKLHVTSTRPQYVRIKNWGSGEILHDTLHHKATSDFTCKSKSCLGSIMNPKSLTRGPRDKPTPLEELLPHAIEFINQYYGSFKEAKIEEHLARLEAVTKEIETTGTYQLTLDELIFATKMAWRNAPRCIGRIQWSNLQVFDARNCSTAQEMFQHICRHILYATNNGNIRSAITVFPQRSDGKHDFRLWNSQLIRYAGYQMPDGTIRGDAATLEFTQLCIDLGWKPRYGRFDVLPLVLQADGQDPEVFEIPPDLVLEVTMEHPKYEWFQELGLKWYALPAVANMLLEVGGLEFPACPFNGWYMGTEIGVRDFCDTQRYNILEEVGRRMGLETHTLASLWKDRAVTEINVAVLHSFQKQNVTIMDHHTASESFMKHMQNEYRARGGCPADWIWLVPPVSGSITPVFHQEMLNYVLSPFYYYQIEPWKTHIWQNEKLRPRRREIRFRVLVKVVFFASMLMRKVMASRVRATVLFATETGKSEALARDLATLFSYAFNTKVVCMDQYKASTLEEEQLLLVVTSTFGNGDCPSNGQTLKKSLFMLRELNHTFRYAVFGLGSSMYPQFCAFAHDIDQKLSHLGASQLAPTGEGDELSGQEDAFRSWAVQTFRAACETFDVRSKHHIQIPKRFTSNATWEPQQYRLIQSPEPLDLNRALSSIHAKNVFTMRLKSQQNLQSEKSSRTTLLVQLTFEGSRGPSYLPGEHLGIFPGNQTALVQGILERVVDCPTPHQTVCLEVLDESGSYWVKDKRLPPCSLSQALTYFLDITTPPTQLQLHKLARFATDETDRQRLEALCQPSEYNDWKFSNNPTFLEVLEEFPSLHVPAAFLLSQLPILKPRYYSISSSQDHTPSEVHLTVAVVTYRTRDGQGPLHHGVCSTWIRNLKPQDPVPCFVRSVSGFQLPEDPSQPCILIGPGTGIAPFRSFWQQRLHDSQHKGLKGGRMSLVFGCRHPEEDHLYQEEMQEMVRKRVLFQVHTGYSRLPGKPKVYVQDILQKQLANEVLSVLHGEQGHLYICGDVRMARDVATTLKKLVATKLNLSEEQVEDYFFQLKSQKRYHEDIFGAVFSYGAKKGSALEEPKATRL

N=C(N)NCCC[C@@H](NC(=O)C(c1ccccc1)c1ccccc1)C(=O)NCc1ccc(CNC(N)=O)cc1 gave a residual activity [1] of 108%, a residual activity [2] of 95% and a residual activity [3] of 29%. The residual activity [4] was 99%, the residual activity [5] was 100% and the residual activity [6] was 97%. The residual activity [7] was 109%, the residual activity [8] was 84% and the IC50 [9] was > 10 µM (not active). For the same compound, the residual activity [10] was 110%, the residual activity [11] was 98% and the residual activity [12] was 97%. For the same compound, the residual activity [13] was 57%, the residual activity [14] was 73% and the residual activity [15] was 91%. For the same compound, the residual activity [16] was 89%, the residual activity [17] was 89% and the residual activity [18] was 84%. It also gave a residual activity [19] of 88%, a residual activity [20] of 30% and a residual activity [21] of 62%. The residual activity [22] was 40%, the residual activity [23] was 114% and the residual activity [24] was 97%. The residual activity [25] was 103%, the residual activity [26] was 104% and the residual activity [27] was 87%. The residual activity [28] was 105%, the residual activity [29] was 91% and the residual activity [30] was 80%. The residual activity [31] was 99%, the residual activity [32] was 92% and the residual activity [33] was 80%. It also gave a residual activity [34] of 82% and a residual activity [35] of 88%.
